Results on 57 compounds are retold here after patent publication US11608341B2, “Substituted tetrahydropyrazolo[3,4-d]pyrimidines and tetrahydropyrazolo[4,3-d]pyrimidines as C5A receptor modulators” (Idorsia Pharmaceuticals Ltd., priority 2018, dated 2023).

This assay has as its target T1, C5AR1 (Homo sapiens, UniProt P21730).
T1 construct: host or cells: CHO-K1
T1 sequence (P21730 1-350): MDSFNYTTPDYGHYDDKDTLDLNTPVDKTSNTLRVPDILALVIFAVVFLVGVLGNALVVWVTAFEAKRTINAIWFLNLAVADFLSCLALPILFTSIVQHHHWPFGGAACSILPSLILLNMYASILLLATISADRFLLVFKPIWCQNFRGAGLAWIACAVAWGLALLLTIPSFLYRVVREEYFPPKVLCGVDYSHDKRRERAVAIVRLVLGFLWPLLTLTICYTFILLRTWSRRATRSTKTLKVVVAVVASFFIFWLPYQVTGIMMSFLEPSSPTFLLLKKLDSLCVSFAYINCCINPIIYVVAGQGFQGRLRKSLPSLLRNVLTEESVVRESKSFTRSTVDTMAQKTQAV
The assay is described as follows: In vitro assay: antagonism of C5a-induced beta-arrestin recruitment (PathHunter) in CHO-K1 C5AR1 beta-arrestin cell line. Type of assay: cell-based. The following applies: antagonistic activity, 1-10 nM C5a agonist, geometric mean where several measurements, read-out: C5aR IC50. In short, it runs like this:
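Antagonist or DMSO added first, then C5a (1-10 nM, added at 6-fold end concentration), 1.5 h at 37 °C. PathHunter detection reagent was added for 45 min at RT before plate reading. IC50s come from antagonist serial dilutions in nmol/l and are geometric means of several measurements.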
On the technique in general: Activated receptors often draw arrestin, which recruitment assays turn into a signal.

Regarding `Cc1cccc(F)c1N1CCC(N2Cc3cn(C[C@@H]4CCN4C(=O)OC(C)C)nc3N(Cc3ccccc3C(F)(F)F)C2=O)CC1` [Example 125], the IC50 (as a rule, the concentration at which inhibition is half-maximal) was 14 nM.
Next, `CCOC(=O)N1CC(n2cc3c(n2)N(Cc2ccccc2C(F)(F)F)C(=O)N(C2CCN(c4c(C)cccc4F)CC2)C3)C1` [Example 126]: 15 nM.
With `Cc1cccc(F)c1N1CCC(N2Cc3cn(C4CN(C(=O)OC(C)C)C4)nc3N(Cc3ccccc3C(F)(F)F)C2=O)CC1` [Example 127] the figure was 14 nM.
With `Cc1cccc(F)c1N1CCC(N2Cc3nn(C)nc3N(Cc3ncccc3C(F)(F)F)C2=O)CC1` [Example 128] the figure was 15 nM; with `Cc1cccc(F)c1N1CCC(N2Cc3cn(C[C@H]4CCN4C(=O)OC(C)(C)C)nc3N(Cc3ccccc3C(F)(F)F)C2=O)CC1` [Example 129], 20 nM.
Consider `Cc1cccc(F)c1N1CCC(N2Cc3cn(C[C@H]4CCN4)nc3N(Cc3ccccc3C(F)(F)F)C2=O)CC1` [Example 130], for which the half-inhibitory concentration (IC50) came to 390 nM.
With `Cc1cccc(F)c1N1CCC(N2Cc3cn(C4CN(C(=O)C(C)C)C4)nc3N(Cc3ccccc3C(F)(F)F)C2=O)CC1` [Example 131] the figure was 100 nM; with `Cc1cccc(F)c1N1CCC(N2Cc3cn(C4CN(C(=O)OCC(C)C)C4)nc3N(Cc3ccccc3C(F)(F)F)C2=O)CC1` [Example 132], 8 nM.
Next, `COC(=O)N1CC[C@@H]1Cn1cc2c(n1)N(Cc1ccccc1C(F)(F)F)C(=O)N(C1CCN(c3c(C)cccc3F)CC1)C2` [Example 133]: 22 nM.
Turning to `CCOC(=O)N1CC[C@@H]1Cn1cc2c(n1)N(Cc1ccccc1C(F)(F)F)C(=O)N(C1CCN(c3c(C)cccc3F)CC1)C2` [Example 134], the IC50 is 13 nM.
Next, `Cc1cccc(F)c1N1CCC(N2Cc3cn(C[C@H]4CCN4C(=O)OC(C)C)nc3N(Cc3ccccc3C(F)(F)F)C2=O)CC1` [Example 135]: 17 nM.
Next, `Cc1cccc(F)c1N1CCC(N2Cc3cn(C4CN(S(C)(=O)=O)C4)nc3N(Cc3ccccc3C(F)(F)F)C2=O)CC1` [Example 136]: 163 nM.
With `Cc1cccc(F)c1N1CCC(N2Cc3cn(C4CN(S(=O)(=O)N(C)C)C4)nc3N(Cc3ccccc3C(F)(F)F)C2=O)CC1` [Example 137] the figure was 81 nM; with `COc1nccc(C)c1N1CCC(N2Cc3cn(C)nc3N(Cc3ncccc3C(F)(F)F)C2=O)CC1` [Example 138], 11 nM.
Regarding `Cc1cccc(F)c1N1CCC(N2Cc3cn(C4CN(C(=O)OC5COC5)C4)nc3N(Cc3ccccc3C(F)(F)F)C2=O)CC1` [Example 139], the half-inhibitory concentration (IC50) was determined as 18 nM.
With `Cc1cccc(F)c1N1CCC(N2Cc3cn(C4CN(C(=O)OC5(C(F)(F)F)COC5)C4)nc3N(Cc3ccccc3C(F)(F)F)C2=O)CC1` [Example 140] the figure was 18 nM; with `Cc1cccc(F)c1N1CCC(N2Cc3cn(C4CN(C(=O)OC5(C)COC5)C4)nc3N(Cc3ccccc3C(F)(F)F)C2=O)CC1` [Example 141], 21 nM; with `Cc1nnc(N2CC(n3cc4c(n3)N(Cc3ccccc3C(F)(F)F)C(=O)N(C3CCN(c5c(C)cccc5F)CC3)C4)C2)o1` [Example 142], 32 nM.
On to `Cc1cccc(F)c1N1CCC(N2Cc3cn(C4CN(c5nnc(C(C)C)o5)C4)nc3N(Cc3ccccc3C(F)(F)F)C2=O)CC1` [Example 143], for which the IC50 was 17 nM.
In the case of `Cc1cccc(F)c1N1CCC(N2Cc3cn(C4CN(c5nnc(C(F)(F)F)o5)C4)nc3N(Cc3ccccc3C(F)(F)F)C2=O)CC1` [Example 144], the IC50 is 14 nM.
On to `COc1nccc(C)c1N1CCC(N2Cc3nn(C)nc3N(Cc3ncccc3C(F)(F)F)C2=O)CC1` [Example 146], for which the half-maximal inhibitory concentration (IC50) was found to be 32 nM.
Turning to `Cc1cccc(F)c1N1CCC(N2Cc3cn(C(=O)OC(C)C)nc3N(Cc3ccccc3C(F)(F)F)C2=O)CC1` [Example 147], the 50% inhibitory concentration (IC50) was determined as 152 nM.
With `Cc1cccc(F)c1N1CCC(N2Cc3cn(C(=O)OCC(C)C)nc3N(Cc3ccccc3C(F)(F)F)C2=O)CC1` [Example 148] the figure was 341 nM; with `Cc1cccc(F)c1N1CCC(N2Cc3cn(C(=O)N(C)C)nc3N(Cc3ccccc3C(F)(F)F)C2=O)CC1` [Example 149], 70 nM; with `Cc1cccc(F)c1N1CCC(N2Cc3cn(C(=O)N(C)CC(C)C)nc3N(Cc3ccccc3C(F)(F)F)C2=O)CC1` [Example 150], 767 nM.
With `CC(C)=Cn1cc2c(n1)N(Cc1ccccc1C(F)(F)F)C(=O)N(C1CCN(c3c(C)cccc3F)CC1)C2` [Example 153] the figure was 40 nM; with `C=C(C)Cn1cc2c(n1)N(Cc1ccccc1C(F)(F)F)C(=O)N(C1CCN(c3c(C)cccc3F)CC1)C2` [Example 154], 26 nM.
Next, `Cc1cccc(F)c1N1CCC(N2Cc3cn(CC(C)C)nc3N(Cc3ccccc3C(F)(F)F)C2=O)CC1` [Example 155]: 25 nM; `Cc1cccc(F)c1N1CCC(N2Cc3cn(C4CNC4=O)nc3N(Cc3ccccc3C(F)(F)F)C2=O)CC1` (stereo not drawn) [Example 157]: 17 nM.
Consider `Cc1cccc(F)c1N1CCC(N2Cc3cn(CC4(C)CC4)nc3N(Cc3ccccc3C(F)(F)F)C2=O)CC1` [Example 158], for which the IC50 was 11 nM.
Next, `Cc1cccc(F)c1N1CCC(N2Cc3cn(CC(F)F)nc3N(Cc3ccccc3C(F)(F)F)C2=O)CC1` [Example 159]: 8 nM; `C#CC(C)(C)n1cc2c(n1)N(Cc1ccccc1C(F)(F)F)C(=O)N(C1CCN(c3c(C)cccc3F)CC1)C2` [Example 160]: 147 nM.
With `Cc1cccc(F)c1N1CCC(N2Cc3cn(C(C)C)nc3N(Cc3ccccc3C(F)(F)F)C2=O)CC1` [Example 161] the figure was 7 nM; with `Cc1cccc(F)c1N1CCC(N2Cc3cn(CC4(F)COC4)nc3N(Cc3ccccc3C(F)(F)F)C2=O)CC1` [Example 164], 13 nM; with `Cc1cccc(F)c1N1CCC(N2Cc3cn(CC4CC4)nc3N(Cc3ccccc3C(F)(F)F)C2=O)CC1` [Example 165], 8 nM.
With `Cc1cccc(F)c1N1CCC(N2Cc3cn(CC4(C)COC4)nc3N(Cc3ccccc3C(F)(F)F)C2=O)CC1` [Example 166] the figure was 12 nM; with `Cc1cccc(F)c1N1CCC(N2Cc3cn(CC4(F)CC4)nc3N(Cc3ccccc3C(F)(F)F)C2=O)CC1` [Example 167], 10 nM.
Consider `Cc1cccc(F)c1N1CCC(N2Cc3cn(CC(C)(C)F)nc3N(Cc3ccccc3C(F)(F)F)C2=O)CC1` [Example 168], for which the concentration for half-maximal inhibition (IC50) was 6 nM.
Take `CCn1cc2c(n1)N(Cc1ccccc1C(F)(F)F)C(=O)N(C1CCN(c3c(C)cccc3F)CC1)C2` [Example 169]: the 50% inhibitory concentration (IC50) stood at 8 nM.
Next, `Cc1cccc(F)c1N1CCC(N2Cc3cn(CC4(O)COC4)nc3N(Cc3ccccc3C(F)(F)F)C2=O)CC1` [Example 171]: 17 nM.
With `Cc1cccc(F)c1N1CCC(N2Cc3cn(C(C)(C)C)nc3N(Cc3ccccc3C(F)(F)F)C2=O)CC1` [Example 173] the figure was 15 nM; with `Cc1cccc(F)c1N1CCC(N2Cc3cn(C4CC4)nc3N(Cc3ccccc3C(F)(F)F)C2=O)CC1` [Example 174], 7 nM; with `Cc1cccc(F)c1N1CCC(N2Cc3nn(C4CC4)cc3N(Cc3ccccc3C(F)(F)F)C2=O)CC1` [Example 175], 14 nM.
Next, `Cc1cccc(F)c1N1CCC(N2Cc3nn(CC(C)(C)F)cc3N(Cc3ccccc3C(F)(F)F)C2=O)CC1` [Example 176]: 16 nM.
For the compound `Cc1cccc(F)c1N1CCC(N2Cc3c(cnn3CC(C)(C)F)N(Cc3ccccc3C(F)(F)F)C2=O)CC1` [Example 177], the half-inhibitory concentration (IC50) is 48 nM.
For the compound `Cc1cccc(F)c1N1CCC(N2Cc3nn(CC4CC4)cc3N(Cc3ccccc3C(F)(F)F)C2=O)CC1` [Example 178], the IC50 was determined as 16 nM.
Next, `Cc1cccc(F)c1N1CCC(N2Cc3c(cnn3CC3CC3)N(Cc3ccccc3C(F)(F)F)C2=O)CC1` [Example 179]: 152 nM; `Cc1cccc(F)c1N1CCC(N2Cc3nn(CC4(C)CC4)cc3N(Cc3ccccc3C(F)(F)F)C2=O)CC1` [Example 180]: 11 nM.
As for `Cc1cccc(F)c1N1CCC(N2Cc3c(cnn3CC3(C)CC3)N(Cc3ccccc3C(F)(F)F)C2=O)CC1` [Example 181], the 50% inhibitory concentration (IC50) came out at 50 nM.
Next, `CCn1cc2c(n1)CN(C1CCN(c3c(C)cccc3F)CC1)C(=O)N2Cc1ccccc1C(F)(F)F` [Example 182]: 30 nM; `Cc1cccc(F)c1N1CCC(N2Cc3nn(C(C)(C)C)cc3N(Cc3ccccc3C(F)(F)F)C2=O)CC1` [Example 183]: 22 nM; `Cc1cccc(F)c1N1CCC(N2Cc3nn(CC4(F)CC4)cc3N(Cc3ccccc3C(F)(F)F)C2=O)CC1` [Example 184]: 9 nM.
Next, `Cc1cccc(F)c1N1CCC(N2Cc3nn(C(C)C)cc3N(Cc3ccccc3C(F)(F)F)C2=O)CC1` [Example 191]: 4 nM.
As for `C=C(C)n1cc2c(n1)CN(C1CCN(c3c(C)cccc3F)CC1)C(=O)N2Cc1ccccc1C(F)(F)F` [Example 192], the half-inhibitory concentration (IC50) turned out to be 4 nM.
With `Cc1cccc(F)c1N1CCC(N2Cc3c[nH]nc3N(Cc3ncccc3C(F)(F)F)C2=O)CC1` [Example 193] the figure was 14 nM.
Next, `Cc1cccc(F)c1N1CCC(N2Cc3cn(CC(C)(F)F)nc3N(Cc3ncccc3C(F)(F)F)C2=O)CC1` [Example 194]: 5 nM; `Cc1cccc(F)c1N1CCC(N2Cc3nn(COCC[Si](C)(C)C)cc3N(Cc3ccccc3C(F)(F)F)C2=O)CC1` [Example 195]: 45 nM.
